Here are results for 33 compounds from US9193731B2, “Antimicrobial compounds and methods of making and using the same” (Melinta Therapeutics, Inc., priority 2009, dated 2015).

The subject of the assay is Escherichia coli strain ATCC25922. Kind of assay: standard microdilution assay to determine minimum inhibitory concentrations (MICs). The assay is classed as cell-based. The settings on record: for E. coli ATCC25922 MIC: Escherichia coli strain ATCC25922, microdilution; for MIC: Escherichia coli, ATCC25922, Escherichia coli strain ATCC25922, microdilution, read-out: E. coli ATCC25922 MIC. In a few lines: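 E. coli strain ATCC25922 tested per CLSI microdilution methodology (about 100 microliters per well) to find minimum inhibitory concentrations. Activity scored categorically at a 16 micrograms/ml threshold.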

The structures appear in SMILES notation.

For the compound `N=C(N)NCCCNCc1ccc(-n2cc3cc(-c4ccc(S(=O)(=O)N(Cc5cc(Cl)cc(C(F)(F)F)c5)C5CCNCC5)cc4)[nH]c3nc2=O)cc1` [Compound 922], the “E. coli ATCC25922 MIC” value is recorded as “+ (a “+” indicates that the compound has an MIC value of 16 micrograms/ml or less)”. Broadly, the MIC is the smallest concentration in the dilution series that meets the test's criterion for growth inhibition. With `NCCCNCc1ccc(-n2cc3cc(CCS(=O)(=O)N(CC4CCOCC4)C4CCNCC4)[nH]c3nc2=O)cc1` [Compound 923], the MIC is under 16 µg/mL. On to `N=C(N)NCCCNCCCCCn1cc2cc(-c3ccc(S(=O)(=O)NC4CCNCC4)cc3)[nH]c2nc1=O` [Compound 924], for which the “E. coli ATCC25922 MIC” value is recorded as “+ (a “+” indicates that the compound has an MIC value of 16 micrograms/ml or less)”. Take `N=C1NCCCN1CCCCCn1cc2cc(-c3ccc(S(=O)(=O)NC4CCNCC4)cc3)[nH]c2nc1=O` [Compound 925]: the MIC is over 16 µg/mL. For `N=C(N)NCCCNCc1ccc(-n2cc3cc(CCS(=O)(=O)NC4CCNCC4)[nH]c3nc2=O)cc1` [Compound 926], the MIC is under 16 µg/mL.

Consider `NCCCOCc1ccc(-c2cn3cc(-c4ccc(C(=O)NC5CCNCC5)cc4)[nH]c3nc2=O)cc1` [Compound 927], for which the MIC was over 16 µg/mL.

Regarding `N=C(N)NCCCOCc1ccc(-c2cn3cc(-c4ccc(C(=O)NC5CCNCC5)cc4)[nH]c3nc2=O)cc1` [Compound 928], the “E. coli ATCC25922 MIC” value is listed as “+ (a “+” indicates that the compound has an MIC value of 16 micrograms/ml or less)”. For `N=C(N)NCCCNCc1ccc(-n2cc3cc(CCS(=O)(=O)N(CC4CCOCC4)C4CCNCC4)[nH]c3nc2=O)cc1` [Compound 930], the “E. coli ATCC25922 MIC” value was “+ (a “+” indicates that the compound has an MIC value of 16 micrograms/ml or less)”. The same measure, in the same setting: the result for `NCCCOCc1ccc(-c2cn3cc(-c4ccc(C(=O)N5CCNCC5)cc4)[nH]c3nc2=O)cc1` [Compound 931] reads “− (a “−” indicates that the compound has an MIC value greater than 16 micrograms/ml)”.

Consider `N=C(N)NCCCOCc1ccc(-c2cn3cc(-c4ccc(C(=O)N5CCNCC5)cc4)[nH]c3nc2=O)cc1` [Compound 932], for which the MIC is over 16 µg/mL. As for `CNCc1ccc(-n2cc3cc(-c4ccc(S(=O)(=O)N(Cc5ccc(Cl)c(Cl)c5)C5CCNCC5)cc4)[nH]c3nc2=O)cc1` [Compound 933], the “E. coli ATCC25922 MIC” value is listed as “− (a “−” indicates that the compound has an MIC value greater than 16 micrograms/ml)”. As for `N=C(N)NCCCNCc1ccc(-n2cc3cc(-c4ccc(S(=O)(=O)N(CCCn5ccc(C(F)(F)F)n5)C5CCNCC5)cc4)[nH]c3nc2=O)cc1` [Compound 934], the “E. coli ATCC25922 MIC” value is listed as “+ (a “+” indicates that the compound has an MIC value of 16 micrograms/ml or less)”. Turning to `NCc1ccc(-n2cc3cc(-c4ccc(S(=O)(=O)N(CC5CC5)C5CCNCC5)cc4)[nH]c3nc2=O)cc1` [Compound 935], the “E. coli ATCC25922 MIC” value is given as “− (a “−” indicates that the compound has an MIC value greater than 16 micrograms/ml)”. Turning to `CNCc1ccc(-n2cc3cc(-c4ccc(S(=O)(=O)N(CC5CC5)C5CCNCC5)cc4)[nH]c3nc2=O)cc1` [Compound 936], the “E. coli ATCC25922 MIC” value is given as “− (a “−” indicates that the compound has an MIC value greater than 16 micrograms/ml)”. Take `CN(CCCO)Cc1cc(-c2cc3cn(-c4ccc(CNCCCNC(=N)N)cc4)c(=O)nc3[nH]2)cc(N2CCNCC2)c1` [Compound 937]: the “E. coli ATCC25922 MIC” value is “+ (a “+” indicates that the compound has an MIC value of 16 micrograms/ml or less)”. On to `NCCCNCc1ccc(-n2cc3cc(-c4ccc([C@H]5OC(=O)N[C@@H]5CO)cc4)[nH]c3nc2=O)cc1` [Compound 939], for which the MIC was over 16 µg/mL. Regarding `CN(CCCO)C(=O)c1cc(-c2cc3cn(-c4ccc(CNCCCNC(=N)N)cc4)c(=O)nc3[nH]2)cc(N2CCNCC2)c1` [Compound 940], the “E. coli ATCC25922 MIC” value is listed as “+ (a “+” indicates that the compound has an MIC value of 16 micrograms/ml or less)”.

For `N=C(N)NCCCNCc1ccc(-n2cc3cc(-c4ccc(S(=O)(=O)NC5CCN(CCF)CC5)cc4)[nH]c3nc2=O)cc1` [Compound 943], the “E. coli ATCC25922 MIC” value was “+ (a “+” indicates that the compound has an MIC value of 16 micrograms/ml or less)”. Still for that read-out and setting: the result for `N=C(N)NCCCNCc1ccc(-n2cc3cc(-c4ccc(C(NC5CCNCC5)C(F)(F)F)cc4)[nH]c3nc2=O)cc1` (stereo not drawn) [Compound 944] reads “+ (a “+” indicates that the compound has an MIC value of 16 micrograms/ml or less)”.

`NCc1ccc(-n2cc3cc(-c4ccc(S(=O)(=O)N(Cc5ccc(Cl)c(Cl)c5)C5CCNCC5)cc4)[nH]c3nc2=O)cc1` [Compound 945]: the MIC was over 16 µg/mL. For the compound `NCc1ccc(-n2cc3cc(-c4ccc(S(=O)(=O)N(CCCC5CCCC5)C5CCNCC5)cc4)[nH]c3nc2=O)cc1` [Compound 946], the MIC was over 16 µg/mL.

In the case of `CNCc1ccc(-n2cc3cc(-c4ccc(S(=O)(=O)N(CCCC5CCCC5)C5CCNCC5)cc4)[nH]c3nc2=O)cc1` [Compound 947], the MIC is over 16 µg/mL.

On to `NCc1ccc(-n2cc3cc(-c4ccc(S(=O)(=O)N(CCCN5CCCCC5)C5CCNCC5)cc4)[nH]c3nc2=O)cc1` [Compound 948], for which the MIC is over 16 µg/mL.

In the case of `CN(Cc1cccnc1)C(=O)c1cc(-c2cc3cn(-c4ccc(CNCCCNC(=N)N)cc4)c(=O)nc3[nH]2)cc(N2CCNCC2)c1` [Compound 951], the “E. coli ATCC25922 MIC” value is “− (a “−” indicates that the compound has an MIC value greater than 16 micrograms/ml)”. Consider `N=C(N)NCCCNCc1ccc(-c2cn3cc(CCc4cc(F)c(F)cc4F)[nH]c3nc2=O)cc1` [Compound 952], for which the MIC was over 16 µg/mL. `CN(Cc1cccc(F)c1)C(=O)c1cc(-c2cc3cn(-c4ccc(CNCCCNC(=N)N)cc4)c(=O)nc3[nH]2)cc(N2CCNCC2)c1` [Compound 957]: the “E. coli ATCC25922 MIC” value is recorded as “+ (a “+” indicates that the compound has an MIC value of 16 micrograms/ml or less)”. Turning to `N=C(N)NCCCNCc1ccc(-n2cc3cc(-c4ccc(S(=O)(=O)N(CC5(CO)CC5)C5CCNCC5)cc4)[nH]c3nc2=O)cc1` [Compound 958], the “E. coli ATCC25922 MIC” value is “+ (a “+” indicates that the compound has an MIC value of 16 micrograms/ml or less)”. Take `CNCc1ccc(-n2cc3cc(-c4ccc(S(=O)(=O)N(CCCN5CCCCC5)C5CCNCC5)cc4)[nH]c3nc2=O)cc1` [Compound 959]: the “E. coli ATCC25922 MIC” value was “− (a “−” indicates that the compound has an MIC value greater than 16 micrograms/ml)”. As to `N=C(N)NCCCN1CC=C(n2cc3cc(-c4ccc(S(=O)(=O)N(CCCN5CCCCC5)C5CCNCC5)cc4)[nH]c3nc2=O)CC1` [Compound 960], the “E. coli ATCC25922 MIC” value is given as “+ (a “+” indicates that the compound has an MIC value of 16 micrograms/ml or less)”.

Consider `NCc1ccc(-n2cc3cc(-c4ccc(S(=O)(=O)N(Cc5ccc6nonc6c5)C5CCNCC5)cc4)[nH]c3nc2=O)cc1` [Compound 961], for which the “E. coli ATCC25922 MIC” value is “− (a “−” indicates that the compound has an MIC value greater than 16 micrograms/ml)”. In the case of `CNCc1ccc(-n2cc3cc(-c4ccc(S(=O)(=O)N(Cc5ccc6nonc6c5)C5CCNCC5)cc4)[nH]c3nc2=O)cc1` [Compound 962], the “E. coli ATCC25922 MIC” value is on record as “− (a “−” indicates that the compound has an MIC value greater than 16 micrograms/ml)”. The same measure, in the same setting: the result for `N=C(N)NCCCNCc1ccc(-n2cc3cc(-c4cc(C(=O)NCCc5ccc(F)cc5)cc(N5CCNCC5)c4)[nH]c3nc2=O)cc1` [Compound 963] reads “+ (a “+” indicates that the compound has an MIC value of 16 micrograms/ml or less)”; that for `CN(CCc1ccccn1)C(=O)c1cc(-c2cc3cn(-c4ccc(CNCCCNC(=N)N)cc4)c(=O)nc3[nH]2)cc(N2CCNCC2)c1` [Compound 964], “− (a “−” indicates that the compound has an MIC value greater than 16 micrograms/ml)”.
